{"source": "patent US6589941B1", "about": "(priority 1995, dated 2003)", "key": {"[1]": {"tested_on": "Saccharomyces cerevisiae MP1", "test": "Recombination / mutation experiments with yeast", "assay_type": "cell-based", "details": "for anti-recombinogenic effects in Saccharomyces cerevisiae MP1: FIGS. 11 and 12"}, "[2]": {"tested_on": "tumor cell strain F46-WT of the mouse", "description": "The formation of resistance is based on the amplification of the MDR gene. This is indicated with the aid of the Northern Blotting Technique, a method for indicating RNA molecules, i.e., the transcription of a gene, using the MDR gene as a probe (FIG. 10).\nThe tumor cell strain F4-6-WT of the mouse (WT=wild type=sensitive to cytostatic treatment=no amplification of the MDR gene) is treated over several weeks with staged increases in concentration of adriamycin. […] The formation of resistance is based on the amplification of the MDR gene. This is indicated with the aid of the Northern Technique, a method for indicating RNA molecules, i.e., the transcription of a gene, using the MDR gene as a probe (FIG. 15). […] The levels of β-actin MRNA are likewise analyzed as comparison. β-actin is used as an internal control for the RNA quantity.\nIn parallel experiments, adriamycin is administered with 1 μg/ml of a respective 5′ substituted nucleoside."}, "[3]": {"tested_on": "human tumor cell strain K562-WT", "details": "FIG. 8"}, "[4]": {"tested_on": "SV40-DNA amplification in SV40 transformed embryonic CO631 hamster cells", "test": "SV40-DNA gene amplification system in SV40-transformed hamster cells", "assay_type": "cell-based, Chinese Hamster", "details": "for effect on SV40 gene amplification: model substance given alone, FIGS. 1 to 3", "from_the_text": "To investigate the amplification phenomena, a hamster cell strain is used which contains a virus (simian virus 40) integrated in the genome. It is known for this cell strain that an addition of genotoxic substances, but also various “non-genotoxic” carcinogens and tumor inducers, leads to amplification of SV40-DNA in the hamster genome. The method is based on the fact that marked SV40-DNA with hamster cell-DNA containing SV40-DNA in an amplified number, serving as a probe, is hybridized. The quantity of bound probe gives an insight into the degree of amplification of the integrated virus-DNA.\nIn order to determine the degree of amplification, the albumin-gene-DNA is measured simultaneously with the SV40-DNA. The albumin-gene, as opposed to SV40-DNA, is not amplified in the cell. Accordingly the value of the relative SV40-DNA content results from the quotient of the signal of the DNA probe hybridized with SV40-DNA to the signal of the DNA probe hybridized with albumin gene from the same SV40 transformed embryonic CO631 hamster cells.\nThe effect of the above named model substances alone or in combination with a carcinogen is tested in the gene amplification system."}, "MDR gene in F46-WT cells": {"tested_on": "MDR gene in F46-WT cells", "test": "Northern Blot analysis of RNA with the MDR gene as probe", "assay_type": "cell-based, mouse", "details": "BVDU+adriamycin treatment, FIG. 10", "from_the_text": "Expression of the MDR genes in the tumor cell strain F4-6WT of the mouse."}}, "data": [{"smiles": "Nc1nc(=O)n([C@H]2C[C@H](O)[C@@H](CO)O2)cc1I", "note": "[5-iodo-2′-deoxycytidine]", "values": [{"measurement": "anti-recombinogenic effects in Saccharomyces cerevisiae MP1", "setting": "[1]", "value": "anti-recombinogenic effects"}]}, {"smiles": "O=c1[nH]c(=O)n([C@H]2C[C@H](O)[C@@H](CO)O2)cc1I", "note": "[5-iodo-2′-deoxyuridine]", "values": [{"measurement": "anti-recombinogenic effects in Saccharomyces cerevisiae MP1", "setting": "[1]", "value": "anti-recombinogenic effects"}]}, {"smiles": "O=c1[nH]c(=O)n([C@H]2C[C@H](O)[C@@H](CO)S2)cc1/C=C/Br", "note": "[(E)-5(2-bromovinyl-2′-deoxy-4′-thiouridine]", "values": [{"measurement": "anti-recombinogenic effects in Saccharomyces cerevisiae MP1", "setting": "[1]", "value": "anti-recombinogenic effects"}]}, {"smiles": "O=c1[nH]c(=O)n([C@@H]2O[C@H](CO)[C@@H](O)[C@@H]2O)cc1/C=C/Br", "note": "[(E)-5-(2-bromovinyl)-1-β-D-arabinofuranosyl-uracil]", "values": [{"measurement": "anti-recombinogenic effects in Saccharomyces cerevisiae MP1", "setting": "[1]", "value": "anti-recombinogenic effects"}]}, {"smiles": "O=c1[nH]c(=O)n([C@H]2C[C@H](O)[C@@H](CO)O2)cc1/C=C/Br", "note": "[BVDU, (E)-5-(2-bromovinyl-)2′-deoxyuridine]", "values": [{"measurement": "anti-recombinogenic effects in Saccharomyces cerevisiae MP1", "setting": "[1]", "value": "anti-recombinogenic effects"}, {"measurement": "effect on mutation in yeast", "setting": "[1]; with and without S9-mix, FIG. 4", "value": "co-mutagenic"}, {"measurement": "effect on recombination in yeast", "setting": "[1]; with and without liver microsomes (S9-mix), more visible and at lower concentration with S9-mix, FIG. 4", "value": "anti-recombinogenic"}, {"measurement": "formation of resistance to adriamycin", "setting": "[2]; 0.5 or 1 μg/ml BVDU given together with adriamycin, F46-WT, 6 to 8 weeks, FIG. 9", "value": "prevents the formation of resistance to adriamycin"}, {"measurement": "concentration from which BVDU acts in a toxic manner", "setting": "[2]; mouse cells, FIG. 9", "value": "about 8 μg/ml"}, {"measurement": "formation of resistance to adriamycin", "setting": "[3]; 0.5 or 1 μg/ml BVDU given together with adriamycin, K562-WT, 6 to 8 weeks", "value": "prevents the formation of resistance to adriamycin"}, {"measurement": "concentration from which BVDU acts in a toxic manner", "setting": "[3]; human tumor cells", "value": "about 10 μg/ml"}, {"measurement": "effect on spontaneous degree of amplification", "setting": "[4]; BVDU alone, repeat experiment, FIG. 6", "value": "slightly to lessen the spontaneous degree of amplification"}, {"measurement": "effect on AMP-induced gene amplification", "setting": "[4]; with S9-mix, lower dose range than without S9-mix, FIG. 7", "value": "lowering of AMP-induced gene amplification"}, {"measurement": "concentration at which inhibition of AMP-induced gene amplification starts", "setting": "[4]; without S9-mix, FIG. 5", "value": "about 0.05 μg/ml"}, {"measurement": "concentration leading to total inhibition of the AMP-induced gene amplification", "setting": "[4]; without S9-mix, dose dependent, FIG. 5", "value": 5, "unit": "µg/mL"}, {"measurement": "amplification of the MDR gene compared with adriamycin treatment alone", "setting": "MDR gene in F46-WT cells", "value": "considerably weaker amplification of the MDR gene"}]}, {"smiles": "C1CN1c1nc(N2CC2)nc(N2CC2)n1", "note": "[TEM, Triethylenmelamin]", "values": [{"measurement": "effect on SV40 gene amplification", "setting": "[4]", "value": "increase the SV40 gene amplification"}]}, {"smiles": "CCCCCCCCCCCCCC(=O)O[C@@H]1[C@@H](C)[C@@]2(O)[C@@H](C=C(CO)C[C@]3(O)C(=O)C(C)=C[C@@H]23)[C@H]2C(C)(C)[C@]12OC(C)=O", "note": "[TPA, 12-0-tetradecanoyl-phorbol-13-acetate]", "values": [{"measurement": "effect on SV40 gene amplification", "setting": "[4]", "value": "increase the SV40 gene amplification"}]}, {"smiles": "CC(N)=O", "note": "[acetamide]", "values": [{"measurement": "effect on SV40 gene amplification", "setting": "[4]", "value": "increase the SV40 gene amplification"}]}, {"smiles": "CC(C)=O", "note": "[acetone]", "values": [{"measurement": "effect on SV40 gene amplification", "setting": "[4]", "value": "no effect"}]}, {"smiles": "COc1cccc2c1C(=O)c1c(O)c3c(c(O)c1C2=O)C[C@@](O)(C(=O)CO)C[C@@H]3O[C@H]1C[C@H](N)[C@H](O)[C@H](C)O1", "note": "[adriamycin]", "values": [{"measurement": "sensitivity of cells after long term treatment with staged increase in concentration", "setting": "[2]; 20 ng/ml adriamycin, F46-WT, FIGS. 9, 13, 14", "value": "totally insensitive"}, {"measurement": "sensitivity of cells after long term treatment with staged increase in concentration", "setting": "[3]; 20 ng/ml adriamycin, K562-WT", "value": "totally insensitive"}, {"measurement": "toxic effect on non-resistant cells", "setting": "[3]; 20 ng/ml adriamycin, treatment time 4 days, K562-WT", "value": "severely toxic effect"}]}, {"smiles": "O=c1ccc2ccccc2o1", "note": "[coumarin]", "values": [{"measurement": "effect on SV40 gene amplification", "setting": "[4]", "value": "increase the SV40 gene amplification"}]}, {"smiles": "CN(C)C=O", "note": "[dimethylfornamide, dimethylformamide]", "values": [{"measurement": "effect on SV40 gene amplification", "setting": "[4]", "value": "no effect"}]}, {"smiles": "C=C(C)[C@@]12O[C@@]3(c4ccccc4)O[C@@H]1[C@@H]1[C@@H]4O[C@]4(CO)[C@@H](O)[C@]4(O)C(=O)C(C)=C[C@H]4[C@@]1(O3)[C@H](C)[C@H]2OC(=O)/C=C/C=C/c1ccccc1", "note": "[mezerein]", "values": [{"measurement": "effect on SV40 gene amplification", "setting": "[4]", "value": "increase the SV40 gene amplification"}]}, {"smiles": "C[C@]12CC[C@H]3[C@@H](CCC4=CC(=O)CC[C@@]43C)[C@@H]1CC[C@@H]2O", "note": "[testosterone]", "values": [{"measurement": "effect on the amplifying effect of methotrexate (MTX)", "setting": "[4]; with S9-mix, FIG. 3", "value": "reduces the amplifying effect of methotrexate (MTX)"}, {"measurement": "effect on the amplifying effect of amino-6-mercaptopurine (AMP)", "setting": "[4]; without S9-mix, FIG. 3", "value": "increases the amplifying effect of amino-6-mercaptopurine (AMP)"}]}, {"smiles": "CC(=N)S", "note": "[thioacetamide]", "values": [{"measurement": "effect on SV40 gene amplification", "setting": "[4]", "value": "increase the SV40 gene amplification"}]}]}
